Columns and labels:
[1] = target: T1, Fatty-acid amide hydrolase 1 (Homo sapiens, UniProt O00519); experiment: Inhibition of human recombinant FAAH using AMC arachidonoyl amide as substrate after 30 mins by fluorescence assay
T1 sequence (O00519 whole entry): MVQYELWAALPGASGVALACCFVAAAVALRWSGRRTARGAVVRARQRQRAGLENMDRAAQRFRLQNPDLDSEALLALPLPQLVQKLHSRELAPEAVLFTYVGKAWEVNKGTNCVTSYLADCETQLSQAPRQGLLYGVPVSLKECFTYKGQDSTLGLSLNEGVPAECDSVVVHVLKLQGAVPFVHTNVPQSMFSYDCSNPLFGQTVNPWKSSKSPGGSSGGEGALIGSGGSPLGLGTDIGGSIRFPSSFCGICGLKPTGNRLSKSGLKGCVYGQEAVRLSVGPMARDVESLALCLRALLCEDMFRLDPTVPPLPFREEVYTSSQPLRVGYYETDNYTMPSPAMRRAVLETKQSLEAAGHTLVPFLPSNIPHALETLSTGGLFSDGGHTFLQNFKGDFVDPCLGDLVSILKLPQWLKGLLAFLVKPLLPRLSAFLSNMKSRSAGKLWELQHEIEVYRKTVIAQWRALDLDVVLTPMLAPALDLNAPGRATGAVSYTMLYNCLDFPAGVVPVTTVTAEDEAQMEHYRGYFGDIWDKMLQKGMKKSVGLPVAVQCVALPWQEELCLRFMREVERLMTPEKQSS

[2] = target: T2, Monoglyceride lipase (Homo sapiens, UniProt Q99685); experiment: Inhibition of human recombinant MAGL using 4-nitrophenylacetate as substrate after 30 mins
T2 sequence (Q99685 whole entry): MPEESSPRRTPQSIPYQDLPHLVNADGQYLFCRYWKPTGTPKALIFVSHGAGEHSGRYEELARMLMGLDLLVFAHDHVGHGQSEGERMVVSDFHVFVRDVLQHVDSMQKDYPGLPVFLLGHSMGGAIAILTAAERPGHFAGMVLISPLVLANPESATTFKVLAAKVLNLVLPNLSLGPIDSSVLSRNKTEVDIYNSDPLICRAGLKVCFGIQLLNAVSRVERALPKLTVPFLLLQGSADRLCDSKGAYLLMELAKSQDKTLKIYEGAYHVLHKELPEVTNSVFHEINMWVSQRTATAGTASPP

[3] = species on record: Homo sapiens; experiment: Selectivity index, ratio of IC50 for human recombinant MAGL to IC50 for human recombinant FAAH
[4] = target: T1, Fatty-acid amide hydrolase 1; experiment: Inhibition of human recombinant FAAH using AMC arachidonoyl amide as substrate preincubated with protein for 0 min followed by substrate addition by fluorescence assay
[5] = target: T1, Fatty-acid amide hydrolase 1; experiment: Inhibition of human recombinant FAAH using AMC arachidonoyl amide as substrate preincubated with protein for 30 mins followed by substrate addition by fluorescence assay
[6] = target: T1, Fatty-acid amide hydrolase 1; experiment: Inhibition of human recombinant FAAH using AMC arachidonoyl amide as substrate preincubated with protein for 60 mins followed by substrate addition by fluorescence assay

Compound | IC50 [1] | further results
CCN(CC)C(=O)c1cc(-c2cccc(OC(=O)NC3CCCCC3)c2)n(-c2ccccc2)n1 | 448 nM | –
CCOC(=O)c1cc(-c2cccc(OC(=O)NC3CCCCC3)c2)n(-c2ccc(C)cc2)n1 | 29 nM | IC50 [2]: 34000 nM; Ratio IC50 [3]: 1190
CCOC(=O)c1cc(-c2cccc(OC(=O)NC3CCCCC3)c2)nn1CC | 507 nM | –
O=C(NC1CCCCC1)Oc1cccc(-c2cc(C(=O)NC3CCCCC3)nn2-c2ccccc2)c1 | 288 nM | –
CC(C)NC(=O)c1cc(-c2cccc(OC(=O)NC3CCCCC3)c2)n(-c2ccccc2)n1 | 232 nM | –
CCOC(=O)c1cc(-c2ccc(OC(=O)NC3CCCCC3)cc2)n(-c2ccccc2)n1 | 268 nM | –
CCCOC(=O)c1cc(-c2cccc(OC(=O)NC3CCCCC3)c2)n(-c2ccccc2)n1 | 27 nM | IC50 [2]: 38000 nM; Ratio IC50 [3]: 1380
CCOC(=O)c1cc(-c2cccc(OC(=O)NC3CCCCC3)c2)nn1-c1ccc(OC)cc1 | 407 nM | –
CCOC(=O)c1cc(-c2cccc(OC(=O)NC3CCCCC3)c2)n(C)n1 | 303 nM | –
O=C(NC1CCCCC1)Oc1cccc(-c2cc(C(=O)O)nn2-c2ccccc2)c1 | 2270 nM | –
CCOC(=O)c1cc(-c2cccc(OC(=O)NC3CCCCC3)c2)nn1-c1ccc(Cl)cc1 | 353 nM | –
O=C(NC1CCCCC1)Oc1cccc(-c2cc(CO)nn2-c2ccccc2)c1 | 462 nM | –
CCOC(=O)c1cc(-c2cccc(OC(=O)NC3CCCCC3)c2)n(-c2ccccc2)n1 | 11 nM | IC50 [2]: 21000 nM; Ratio IC50 [3]: 1840
CCOC(=O)c1cc(-c2ccc(OC(=O)NC3CCCCC3)cc2)nn1-c1ccccc1 | 592 nM | –
CCOC(=O)c1cc(-c2ccc(OC(=O)NC3CCCCC3)cc2)n(-c2ccc(Cl)cc2)n1 | 281 nM | –
CCOC(=O)c1cc(-c2ccc(OC(=O)NC3CCCCC3)cc2)nn1C | 316 nM | –
COC(=O)c1cc(-c2cccc(OC(=O)NC3CCCCC3)c2)n(-c2ccccc2)n1 | 18 nM | IC50 [2]: 49000 nM; Ratio IC50 [3]: 2750
COc1ccc(-n2nc(C(N)=O)cc2-c2cccc(OC(=O)NC3CCCCC3)c2)cc1 | 743 nM | –
CCOC(=O)c1cc(-c2ccc(OC(=O)NC3CCCCC3)cc2)nn1CC | 603 nM | –
CCOC(=O)c1cc(-c2cccc(OC(=O)NC3CCCCC3)c2)n(-c2ccc(Cl)cc2)n1 | 17 nM | IC50 [2]: 83000 nM; Ratio IC50 [3]: 4900; IC50 [4]: 15 nM; IC50 [5]: 17 nM; IC50 [6]: 18 nM
CCOC(=O)c1cc(-c2cccc(OC(=O)NC3CCCCC3)c2)nn1-c1ccccc1 | 539 nM | –
CCOC(=O)c1cc(-c2ccc(OC(=O)NC3CCCCC3)cc2)nn1-c1ccc(Cl)cc1 | 586 nM | –

Now from value to compound, other results behind:

IC50 [1] | Compound | further results
78 nM | CCOC(=O)c1cc(-c2cccc(OC(=O)NC3CCCCC3)c2)n(-c2ccc([N+](=O)[O-])cc2)n1 | –
101 nM | CCCCCCNC(=O)Oc1cccc(-c2cc(C(=O)OCCC)nn2-c2ccccc2)c1 | –
70 nM | CCOC(=O)c1cc(-c2cccc(OC(=O)NC3CCCCC3)c2)n(Cc2ccccc2)n1 | –
14 nM | COc1nn(-c2ccc(NC(=O)OCc3ccccc3)c(C)c2)c(=O)o1 | IC50 [4]: 13 nM; IC50 [5]: 3.5 nM; IC50 [6]: 1.9 nM
209 nM | Cn1nc(C(N)=O)cc1-c1ccc(OC(=O)NC2CCCCC2)cc1 | –
172 nM | NC(=O)c1cc(-c2ccc(OC(=O)NC3CCCCC3)cc2)n(-c2ccc(Cl)cc2)n1 | –
123 nM | CCOC(=O)c1cc(-c2cccc(OC(=O)NC3CCCCC3)c2)n(-c2ccc(Cl)cc2Cl)n1 | –
174 nM | NC(=O)c1cc(-c2cccc(OC(=O)NC3CCCCC3)c2)n(-c2ccc(Cl)cc2)n1 | –
71 nM | NC(=O)c1cc(-c2ccc(OC(=O)NC3CCCCC3)cc2)n(-c2ccccc2)n1 | –
227 nM | CCOC(=O)c1cc(-c2cccc(OC(=O)NC3CCCCC3)c2)nn1C | –
214 nM | CCOC(=O)c1cc(-c2ccc(OC(=O)NC3CCCCC3)cc2)n(CC)n1 | –
101 nM | CCOC(=O)c1cc(-c2cccc(OC(=O)NC3CCCCC3)c2)n(CC)n1 | –
88 nM | CCCCCCNC(=O)Oc1cccc(-c2cc(C(=O)OCC)nn2-c2ccccc2)c1 | –
132 nM | CCOC(=O)c1cc(-c2cccc(OC(=O)NC3CCCCC3)c2)n(-c2ccc(C(F)(F)F)cc2)n1 | –
103 nM | CCOC(=O)c1cc(-c2cccc(OC(=O)NC3CCCCC3)c2)n(-c2ccc(OC)cc2)n1 | –
81 nM | CCOC(=O)c1cc(-c2ccc(OC(=O)NC3CCCCC3)cc2)n(C)n1 | –
159 nM | CCOC(=O)c1cc(-c2ccc(OC(=O)NC3CCCCC3)cc2)nn1-c1ccc(OC)cc1 | –
169 nM | NC(=O)c1cc(-c2cccc(OC(=O)NC3CCCCC3)c2)n(-c2ccccc2)n1 | –

Source: ChEMBL document CHEMBL3421629, “Pyrazole phenylcyclohexylcarbamates as inhibitors of human fatty acid amide hydrolases (FAAH)” (Eur J Med Chem, 2015)
